Measurements: ChEMBL document CHEMBL1201862, “PubChem BioAssay data set” (2004)
Calls of active or inactive are those of the source.

Experiments:
Keap1/Nrf2 = Keap1/Nrf2 (Homo sapiens, UniProt Q14145); experiment: disruptors of Keap1 binding to Nrf2 peptide – biochemical, fluorescence polarization, cherry-picked samples, dose response (AID 588683)
SUMO E1/E2 = SUMO E1/E2 (Homo sapiens, UniProt P63279+Q9UBE0+Q9UBT2); experiment: SAR analysis of SUMOylation using HTRF in an in-Vitro dose response assay. [Related pubchem assays (depositor defined):AID2006, AID2011, AID2018, AID2069, AID2658]; assay type: functional
[1] = molecular target: Heat shock protein HSP 90-alpha (Homo sapiens, UniProt P07900); assay type: functional, organism-based
CHO = CHO cell viability loss, potency – luminescence, cytotoxicity control for TLR9-MyD88 binding inhibitor project, dose response (AID 588339); assay type: functional, cell-based, hamster; settings: Cricetulus griseus;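 also: CHO cells stably coexpressing TLR9 and MyD88 fusions from primary screen; compound exposure lasted 48 hours before viability readout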
Beta Lactamase = Beta Lactamase (Pseudomonas aeruginosa, UniProt Q932Y6); experiment: BLA reporter interference, concentration series – BLA reporter cells, FRET fluorescence, artefact control for TLR9-MyD88 binding inhibitor project, dose response (AID 588341); assay type: cell-based;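 also: cell based assay in CHO-K1 cells stably expressing beta-lactamase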
[2] = molecular target: Glucose-6-phosphate 1-dehydrogenase (Homo sapiens, UniProt P11413); experiment: inhibition of Homo sapiens G6PD, dose series – biochemical, fluorescence, selectivity assay for P. falciparum G6PD inhibitor project, dose response (AID 504792); assay type: functional
[3] = molecular target: T1, Mannose-6-phosphate isomerase (Homo sapiens, UniProt P34949); experiment: MPI enzyme activity inhibition – biochemical, fluorescence intensity, coupled assay, primary screen (AID 1209)
T1 sequence (P34949 whole entry): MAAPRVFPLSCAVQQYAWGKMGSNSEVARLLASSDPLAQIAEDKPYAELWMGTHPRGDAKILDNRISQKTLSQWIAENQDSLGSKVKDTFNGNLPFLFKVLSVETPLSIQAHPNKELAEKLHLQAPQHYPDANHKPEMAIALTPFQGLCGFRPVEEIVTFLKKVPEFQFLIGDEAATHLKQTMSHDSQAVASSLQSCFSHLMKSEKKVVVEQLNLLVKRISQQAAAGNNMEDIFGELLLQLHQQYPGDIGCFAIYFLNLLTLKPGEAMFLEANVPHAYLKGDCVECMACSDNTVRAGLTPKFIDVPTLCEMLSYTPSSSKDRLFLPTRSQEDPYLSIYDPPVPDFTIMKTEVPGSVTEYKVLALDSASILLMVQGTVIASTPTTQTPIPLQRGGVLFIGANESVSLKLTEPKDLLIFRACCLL

[4] = molecular target: T1, Mannose-6-phosphate isomerase; experiment: phosphomannose isomerase inhibition – biochemical, fluorescence intensity, confirmation (AID 1535)
[5] = molecular target: DNA dC->dU-editing enzyme APOBEC-3G (Homo sapiens, UniProt Q9HC16); experiment: Dose Response confirmation of small molecule APOBEC3G DNA Deaminase Inhibitors via a fluorescence-based single-stranded DNA deaminase assay. [Related pubchem assays (depositor defined):AID493012, AID493028]; assay type: functional
[6] = molecular target: DNA dC->dU-editing enzyme APOBEC-3A (Homo sapiens, UniProt P31941); experiment: A3A deaminase inhibition for selectivity – biochemical, dose response (AID 504722); assay type: functional
Phosphomannomutase 2 = Phosphomannomutase 2 (Homo sapiens, UniProt O15305); experiment: Counter screen SAR assay for PMM2 inhibitors via a fluorescence intensity assay. [Related pubchem assays (depositor defined):AID1545, AID1574]
Cytochrome P450 1A2 = molecular target: T2, Cytochrome P450 1A2 (Homo sapiens, UniProt P05177);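 also: PubChem cytochrome P450 panel assay, CYP1A2 panel member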
T2 sequence (P05177 whole entry): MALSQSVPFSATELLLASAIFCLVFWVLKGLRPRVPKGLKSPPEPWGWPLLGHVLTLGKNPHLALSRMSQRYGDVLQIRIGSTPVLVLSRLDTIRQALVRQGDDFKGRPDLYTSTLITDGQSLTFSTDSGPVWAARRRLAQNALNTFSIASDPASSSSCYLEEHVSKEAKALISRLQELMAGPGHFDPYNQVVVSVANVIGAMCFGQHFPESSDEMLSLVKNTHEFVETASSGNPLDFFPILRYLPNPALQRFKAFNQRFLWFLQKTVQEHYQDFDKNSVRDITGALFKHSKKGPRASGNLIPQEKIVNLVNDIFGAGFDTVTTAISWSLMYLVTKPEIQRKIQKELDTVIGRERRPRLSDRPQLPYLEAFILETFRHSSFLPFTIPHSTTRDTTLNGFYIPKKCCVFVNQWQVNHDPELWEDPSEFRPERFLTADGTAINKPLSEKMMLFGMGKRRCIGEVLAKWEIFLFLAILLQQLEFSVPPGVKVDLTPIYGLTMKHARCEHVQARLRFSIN

Cytochrome P450 2C9 = Cytochrome P450 2C9 (Homo sapiens, UniProt P11712)
[7] = molecular target: Voltage-gated inwardly rectifying potassium channel KCNH2 (Homo sapiens, UniProt Q12809); settings: Potency;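 also: confirmatory quantitative high-throughput screen measuring inhibition of hERG channel activity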

Sequence of DNA dC->dU-editing enzyme APOBEC-3A (P31941 whole entry): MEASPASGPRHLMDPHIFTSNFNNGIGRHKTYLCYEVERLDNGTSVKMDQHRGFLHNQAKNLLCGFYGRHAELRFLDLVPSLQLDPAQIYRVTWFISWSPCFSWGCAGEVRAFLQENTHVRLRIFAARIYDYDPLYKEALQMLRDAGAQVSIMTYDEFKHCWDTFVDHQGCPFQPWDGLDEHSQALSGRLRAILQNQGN
Sequence of SUMO E1/E2 (Q9UBE0 whole entry): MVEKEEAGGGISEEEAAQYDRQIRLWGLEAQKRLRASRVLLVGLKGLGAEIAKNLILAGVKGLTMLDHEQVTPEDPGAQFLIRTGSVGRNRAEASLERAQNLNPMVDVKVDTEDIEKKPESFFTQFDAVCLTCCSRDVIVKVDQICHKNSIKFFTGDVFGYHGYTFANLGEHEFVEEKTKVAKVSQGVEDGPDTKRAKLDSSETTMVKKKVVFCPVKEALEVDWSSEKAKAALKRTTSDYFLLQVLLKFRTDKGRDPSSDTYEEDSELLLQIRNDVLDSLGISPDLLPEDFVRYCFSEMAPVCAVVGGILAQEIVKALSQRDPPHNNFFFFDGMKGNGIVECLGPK
Sequence of SUMO E1/E2 (Q9UBT2 whole entry): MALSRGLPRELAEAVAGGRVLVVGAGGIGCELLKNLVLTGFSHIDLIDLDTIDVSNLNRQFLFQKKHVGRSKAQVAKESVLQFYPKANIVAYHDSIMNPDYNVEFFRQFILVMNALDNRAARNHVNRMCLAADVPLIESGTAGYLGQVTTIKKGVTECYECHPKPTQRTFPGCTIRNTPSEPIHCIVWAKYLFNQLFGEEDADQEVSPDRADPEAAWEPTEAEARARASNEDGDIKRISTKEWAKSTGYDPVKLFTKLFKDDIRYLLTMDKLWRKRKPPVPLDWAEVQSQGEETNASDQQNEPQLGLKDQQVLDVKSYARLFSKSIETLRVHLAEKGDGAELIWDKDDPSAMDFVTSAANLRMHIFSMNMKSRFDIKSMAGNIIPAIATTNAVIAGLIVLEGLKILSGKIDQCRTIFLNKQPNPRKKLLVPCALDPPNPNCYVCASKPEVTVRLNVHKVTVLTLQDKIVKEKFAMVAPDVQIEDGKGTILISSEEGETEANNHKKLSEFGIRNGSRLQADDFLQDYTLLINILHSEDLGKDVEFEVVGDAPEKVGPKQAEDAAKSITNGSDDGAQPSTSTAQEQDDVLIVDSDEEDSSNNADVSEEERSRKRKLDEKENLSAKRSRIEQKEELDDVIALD
Sequence of SUMO E1/E2 (P63279 whole entry): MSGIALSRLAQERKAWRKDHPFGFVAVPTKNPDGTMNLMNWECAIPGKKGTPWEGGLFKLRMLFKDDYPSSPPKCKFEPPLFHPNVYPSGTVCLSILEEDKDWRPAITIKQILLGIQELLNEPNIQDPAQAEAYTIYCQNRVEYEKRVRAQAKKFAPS
Sequence of DNA dC->dU-editing enzyme APOBEC-3G (Q9HC16 whole entry): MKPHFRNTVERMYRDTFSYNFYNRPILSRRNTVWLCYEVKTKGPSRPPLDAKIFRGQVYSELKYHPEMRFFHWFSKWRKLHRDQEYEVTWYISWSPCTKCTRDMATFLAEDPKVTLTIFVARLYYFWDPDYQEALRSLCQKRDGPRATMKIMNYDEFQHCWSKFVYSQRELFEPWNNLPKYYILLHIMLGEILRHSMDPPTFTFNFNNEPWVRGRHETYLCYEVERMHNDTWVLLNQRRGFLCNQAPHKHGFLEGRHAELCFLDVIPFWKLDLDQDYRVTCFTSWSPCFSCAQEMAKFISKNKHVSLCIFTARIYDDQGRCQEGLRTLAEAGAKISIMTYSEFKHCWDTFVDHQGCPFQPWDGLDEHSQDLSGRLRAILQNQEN
Sequence of Beta Lactamase (Q932Y6 whole entry): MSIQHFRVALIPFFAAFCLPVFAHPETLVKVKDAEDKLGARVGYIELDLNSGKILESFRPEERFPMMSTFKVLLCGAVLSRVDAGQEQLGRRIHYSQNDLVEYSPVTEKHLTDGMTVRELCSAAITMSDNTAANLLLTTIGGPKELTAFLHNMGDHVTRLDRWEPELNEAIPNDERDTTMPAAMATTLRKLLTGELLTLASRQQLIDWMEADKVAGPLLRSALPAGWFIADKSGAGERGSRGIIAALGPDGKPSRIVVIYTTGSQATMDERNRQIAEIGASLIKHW
Sequence of Keap1/Nrf2 (Q16236 whole entry): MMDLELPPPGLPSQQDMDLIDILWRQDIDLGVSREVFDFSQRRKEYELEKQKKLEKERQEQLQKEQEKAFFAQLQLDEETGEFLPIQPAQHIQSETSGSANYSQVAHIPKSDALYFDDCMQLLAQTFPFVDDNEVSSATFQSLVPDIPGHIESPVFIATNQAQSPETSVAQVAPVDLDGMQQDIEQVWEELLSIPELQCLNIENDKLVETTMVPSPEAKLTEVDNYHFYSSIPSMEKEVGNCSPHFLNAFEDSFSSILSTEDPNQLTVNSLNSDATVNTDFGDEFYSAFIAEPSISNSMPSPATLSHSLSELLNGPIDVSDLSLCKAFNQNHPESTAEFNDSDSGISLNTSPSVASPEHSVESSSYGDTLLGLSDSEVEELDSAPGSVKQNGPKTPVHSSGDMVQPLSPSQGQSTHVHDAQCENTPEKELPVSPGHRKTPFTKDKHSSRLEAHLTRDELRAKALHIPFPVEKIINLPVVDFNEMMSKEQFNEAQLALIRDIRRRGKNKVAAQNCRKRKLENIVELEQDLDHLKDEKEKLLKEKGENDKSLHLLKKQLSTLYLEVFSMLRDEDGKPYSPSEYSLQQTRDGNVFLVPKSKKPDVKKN
Sequence of Keap1/Nrf2 (Q14145 whole entry): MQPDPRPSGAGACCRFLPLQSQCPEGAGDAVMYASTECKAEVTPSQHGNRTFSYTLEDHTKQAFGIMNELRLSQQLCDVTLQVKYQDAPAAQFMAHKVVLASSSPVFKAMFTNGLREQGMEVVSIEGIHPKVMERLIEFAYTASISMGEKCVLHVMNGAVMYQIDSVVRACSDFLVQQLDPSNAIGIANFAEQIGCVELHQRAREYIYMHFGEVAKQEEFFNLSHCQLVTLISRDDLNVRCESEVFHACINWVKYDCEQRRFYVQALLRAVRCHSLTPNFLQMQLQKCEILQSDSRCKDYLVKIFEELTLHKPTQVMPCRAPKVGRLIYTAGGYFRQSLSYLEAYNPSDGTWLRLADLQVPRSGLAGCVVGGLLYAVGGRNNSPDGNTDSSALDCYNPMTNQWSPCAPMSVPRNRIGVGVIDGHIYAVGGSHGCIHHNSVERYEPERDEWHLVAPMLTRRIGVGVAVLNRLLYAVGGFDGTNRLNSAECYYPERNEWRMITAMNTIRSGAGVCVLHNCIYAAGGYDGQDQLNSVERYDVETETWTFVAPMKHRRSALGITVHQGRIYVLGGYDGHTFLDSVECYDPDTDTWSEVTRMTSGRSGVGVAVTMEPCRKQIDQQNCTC
Sequence of Glucose-6-phosphate 1-dehydrogenase (P11413 whole entry): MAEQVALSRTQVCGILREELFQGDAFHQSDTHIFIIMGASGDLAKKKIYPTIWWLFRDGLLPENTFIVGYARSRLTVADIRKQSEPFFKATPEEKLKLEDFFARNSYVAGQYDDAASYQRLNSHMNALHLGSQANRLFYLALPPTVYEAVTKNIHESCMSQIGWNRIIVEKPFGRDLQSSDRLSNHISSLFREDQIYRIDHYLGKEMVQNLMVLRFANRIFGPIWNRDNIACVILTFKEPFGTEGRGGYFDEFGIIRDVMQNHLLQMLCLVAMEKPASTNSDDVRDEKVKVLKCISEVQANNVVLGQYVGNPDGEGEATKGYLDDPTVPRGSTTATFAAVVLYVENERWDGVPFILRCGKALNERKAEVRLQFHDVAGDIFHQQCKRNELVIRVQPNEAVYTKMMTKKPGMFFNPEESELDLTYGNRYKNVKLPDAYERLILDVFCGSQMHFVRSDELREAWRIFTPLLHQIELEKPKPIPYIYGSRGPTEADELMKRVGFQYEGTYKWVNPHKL
Sequence of Phosphomannomutase 2 (O15305 whole entry): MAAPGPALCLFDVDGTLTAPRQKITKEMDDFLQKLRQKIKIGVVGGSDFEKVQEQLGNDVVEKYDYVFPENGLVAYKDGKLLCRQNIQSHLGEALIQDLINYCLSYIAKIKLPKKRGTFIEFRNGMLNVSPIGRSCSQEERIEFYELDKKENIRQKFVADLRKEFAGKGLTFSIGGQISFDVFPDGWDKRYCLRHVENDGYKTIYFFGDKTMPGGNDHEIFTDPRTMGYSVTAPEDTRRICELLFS
Sequence of Cytochrome P450 2C9 (P11712 whole entry): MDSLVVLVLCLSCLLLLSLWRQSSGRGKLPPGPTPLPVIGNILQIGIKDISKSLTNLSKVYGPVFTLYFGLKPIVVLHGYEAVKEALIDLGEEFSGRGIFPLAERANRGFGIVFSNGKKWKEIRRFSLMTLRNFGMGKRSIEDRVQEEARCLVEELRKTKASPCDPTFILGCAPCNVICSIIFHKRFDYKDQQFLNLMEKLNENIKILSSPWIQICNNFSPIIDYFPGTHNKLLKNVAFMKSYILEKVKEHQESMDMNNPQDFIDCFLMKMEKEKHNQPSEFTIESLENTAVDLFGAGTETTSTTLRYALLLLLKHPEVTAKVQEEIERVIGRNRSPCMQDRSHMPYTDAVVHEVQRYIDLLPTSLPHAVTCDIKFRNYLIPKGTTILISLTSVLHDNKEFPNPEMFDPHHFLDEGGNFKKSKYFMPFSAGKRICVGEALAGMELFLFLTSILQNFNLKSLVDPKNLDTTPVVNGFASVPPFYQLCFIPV

CC(C)N1CC=C2C(C#N)=C(N)C(C#N)(C#N)C(c3ccccc3)C2C1 (centres undefined)
AC50 (Keap1/Nrf2): > 52 µM (inactive)

O=C(O)c1ccc2c(c1)C1C=CCC1C(c1ccc(F)cc1)N2 (centres undefined)
IC50 (SUMO E1/E2): > 100 µM (inactive)

O=C1C=CC(=O)N1CCCCCCCCCCN1C(=O)C=CC1=O
AC50 [1]: 1.49 µM (active)
IC50 (CHO): 1.82 µM (active)
IC50 (Beta Lactamase): 16.3 µM (inactive)
IC50 [2]: > 80 µM (inactive)

CCSc1nnc(S)s1
IC50 [3]: 49.7 µM (active)
IC50 [4]: 44.2 µM (active)
IC50 [5]: 7.81 µM (active)
IC50 [6]: > 100 µM (inactive)
IC50 (Phosphomannomutase 2): > 100 µM (inactive)

O=C(O)c1cc(O)c2ccc(Cl)cc2n1 [7-CHLOROKYNURENIC ACID]
AC50 (Cytochrome P450 1A2): inconclusive
AC50 (Cytochrome P450 2C9): inconclusive
AC50 [7]: 6.31 µM (inconclusive)
